Assay results taken from patent US9545105B2, “1-(heterocyclic carbonyl) piperidines” (BAYER INTELLECTUAL PROPERTY GMBH, priority 2010, dated 2017).

Key:
[1] = system: Fusarium nivale (var. majus); experiment: In vivo preventive test on Fusarium nivale (wheat); details: 500 ppm of active ingredient, evaluated 5 days after inoculation
Procedure: Solvent: 49 parts by weight of N,N-dimethylacetamide Emulsifier: 1 part by weight of alkylaryl polyglycol ether To produce a suitable preparation of active compound, 1 part by weight of active compound or active compound combination is mixed with the stated amounts of solvent and emulsifier, and the concentrate is diluted with water to the desired concentration. To test for preventive activity, young plants are sprayed with the preparation of active compound or active compound combination at the stated rate of application. After the spray coating has been dried, the plants are slightly injured by using a sandblast and afterwards they are sprayed with a conidia suspension of Fusarium nivale (var. majus). The plants are placed in the greenhouse under a translucent incubation cabinet at a temperature of approximately 10° C. and a relative atmospheric humidity of approximately 100%. The test is evaluated 5 days after the inoculation. 0% means an efficacy which corresponds to that of the untreated control, while an efficacy of 100% means that no disease is observed.

[2] = system: Blumeria graminis f. sp. hordei; experiment: In vivo preventive test on Blumeria graminis (barley); details: 500 ppm of active ingredient, evaluated 7 days after inoculation
Procedure: Solvent: 49 parts by weight of N,N-dimethylacetamide Emulsifier: 1 part by weight of alkylaryl polyglycol ether To produce a suitable preparation of active compound, 1 part by weight of active compound or active compound combination is mixed with the stated amounts of solvent and emulsifier, and the concentrate is diluted with water to the desired concentration. To test for preventive activity, young plants are sprayed with the preparation of active compound or active compound combination at the stated rate of application. After the spray coating has been dried, the plants are dusted with spores of Blumeria graminis f. sp. hordei. The plants are placed in the greenhouse at a temperature of approximately 18° C. and a relative atmospheric humidity of approximately 80% to promote the development of mildew pustules. The test is evaluated 7 days after the inoculation. 0% means an efficacy which corresponds to that of the untreated control, while an efficacy of 100% means that no disease is observed.

[3] = log P by HPLC on reversed-phase column (C 18), EEC Directive 79/831 Annex V.A8; format: physicochemical; details: HPLC on reversed-phase column (C 18); 40° C.; 0.1% aqueous formic acid and acetonitrile; linear gradient 10% to 90% acetonitrile
Method in brief: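 Compounds are eluted at 40° C using 0.1% aqueous formic acid and acetonitrile in a linear gradient from 10% to 90% acetonitrile. Unbranched alkan-2-ones bearing 3 to 16 carbons with known log P serve as calibrants. Each log P is interpolated linearly from retention times of the two bracketing alkanones.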

Phakopsora pachyrhizi = experiment: In vivo protective test on Phakopsora pachyrhizi (soybeans); details: 250 ppm of active ingredient, evaluated 11 days after inoculation
Leptosphaeria nodorum = experiment: In vivo preventive test on Leptosphaeria nodorum (wheat); details: 500 ppm of active ingredient, evaluated 8 days after inoculation
Procedure: Solvent: 49 parts by weight of N,N-dimethylacetamide Emulsifier: 1 part by weight of alkylaryl polyglycol ether To produce a suitable preparation of active compound, 1 part by weight of active compound or active compound combination is mixed with the stated amounts of solvent and emulsifier, and the concentrate is diluted with water to the desired concentration. To test for preventive activity, young plants are sprayed with the preparation of active compound or active compound combination at the stated rate of application. After the spray coating has been dried, the plants are sprayed with a spore suspension of Leptosphaeria nodorum. The plants remain for 48 hours in an incubation cabinet at approximately 20° C. and a relative atmospheric humidity of approximately 100%. The plants are placed in the greenhouse at a temperature of approximately 22° C. and a relative atmospheric humidity of approximately 80%. The test is evaluated 8 days after the inoculation. 0% means an efficacy which corresponds to that of the untreated control, while an efficacy of 100% means that no disease is observed.

| logP [3] | SMILES | Efficacy [1] [%] | Efficacy [2] [%] | Efficacy (Phakopsora pachyrhizi) [%] | Efficacy (Leptosphaeria nodorum) [%] |
| --- | --- | --- | --- | --- | --- |
| 3.23 | Cc1cc(C)cc(C2CCCCN2C(=O)c2c(C)nn(C)c2F)c1 (stereo not drawn) [Example 10] | 88 | 88 | 98 | 71 |
| 3.62 | CCc1nn(C)c(F)c1C(=O)N1CCCCC1c1cc(C)cc(C)c1 (stereo not drawn) [Example 11] | 83 | 80 | 96 | – |
| 3.35 | CCc1nn(C)c(F)c1C(=O)N1CCCCC1c1ccc(Cl)cc1 (stereo not drawn) [Example 54] | 71 | 70 | – | 100 |
| 3.59 | CCC(c1ccccc1)C1CCCCN1C(=O)c1c(C(F)F)nn(C)c1F (stereo not drawn) [Example 136] | 86 | 100 | – | 100 |
| 4.39 | CCC(c1ccccc1)C1CCCCN1C(=S)c1c(C(F)F)nn(C)c1F (stereo not drawn) [Example 140] | 71 | 100 | – | 93 |
